Experimental findings from US6794154B1, “Remedies for kidney diseases and method for screening the same” (Tanabe Seiyaku Co., Ltd., priority 1999, dated 2004) are described below.

Assay [1] concerns L-FABP mRNA in human urinary exfoliated cells (human renal tubular epithelial cells). In words: L-FABP up-regulating activity at mRNA level (RT-PCR) in human urinary exfoliated cells. It is filed as cell-based. The following applies: 10 μM (Table 1), listed as THA. The procedure:
Renal tubular epithelial cells exfoliated from kidney tissues into urine (hereafter, referred to as “urinary exfoliated cell”) were isolated from human urine sample and cultured in the following manner. Firstly, urine samples from male infant nephritis patients (0-3 years old) were collected using the clean-catch method. The urine samples were then centrifuged (1000 rpm, 10 minutes) at room temperature and the supernatant was discarded. The pellet was washed with 10% (v/v) fetal calf serum-containing Dulbecco's modified Eagle's medium twice and then with culture medium once. The culture medium used herein was a mixture (1:1) of Dulbecco's modified Eagle's medium and Ham's F-12 medium, to which mixture was added fetal calf serum (10% v/v), insulin (5 μg/ml), transferrin (5 μg/ml), sodium selenite (5 ng/ml), dexamethasone (10^−8 M), nicotinamide (5 mM), penicillin (100 IU/ml) and streptomycin (100 μg/ml). The pellet was suspended into the culture medium, diluted appropriately and then cultured in collagen type 4-coated dish (3.5 cm in diameter, Falcon). The cultivation was performed under the condition of 5% CO2, 37° C. […] Also, in order to normalize the measurement values, rBAT (related to b^0,+ system amino acid transporter; Purroy et. al., Genomics, Vol 37. pp. 249-252, 1996) mRNA was detected as control by RT-PCR.

Assay [2] deals with human L-FABP gene transcriptional regulatory region (luciferase reporter). Kind of assay: L-FABP up-regulating activity by luciferase reporter assay in proximal renal tubular epithelial cell line mProx 37-13. It is filed as cell-based. As to conditions: mProx 37-13 cells, serum-free medium, luciferase measured after 2 to 10 hours; FIG. 4. The procedure: A test substance was examined for the L-FABP up-regulating activity by reporter assay method in the following manner using the proximal renal tubular epithelial cell line mProx 37-13 (also referred as “cell line No. 13”) comprising L-FABP reporter DNA construct and was prepared in Example 2 above. Firstly, the cell line mProx 37-13 was added in 96-well flat-bottom plates at 5×10^4 cells/ 100 μl/well and cultured. The cultivation was conducted using plates pre-coated with 0.1% gelatin and, as a medium, a high glucose-containing Dulbecco's MEM medium (Dulbecco's MEM, high glucose; DMEM) (Gibco) supplemented with 10% fetal calf serum, 100 unit/ml of penicillin and 100 μg/ml of streptomycin. […] After additional cultivation, Luciferase activity was detected after 2 to 10 hours. Luciferase activity was measured in the following way. […] After the plate stored at −80° C. was allowed to become room temperature, 100 μl of luminescence substrate solution (PicaGene luminescence kit, TOYO INK) was added to initiate reaction. Amount of luminescence was detected using luminometer (MicroLumat LP98P, BERTHOLD). […] The luciferase induction rate (Luc induction rate) was calculated based on the activity value according to the following equation: Luc induction rate=(test value)/(control value).
(In general: A reporter such as luciferase makes a cellular process visible.)

A further assay deals with human L-FABP. In words: L-FABP up-regulating activity at protein level (Western blotting or ELISA) in LLC-PK1 or mouse immortalized renal tubular epithelial cells carrying the human L-FABP chromosomal gene. It is filed as cell-based. The following applies: 1 μM, serum-free DMEM; anti-human L-FABP antibody. The text has this: The plasmid isolated in Example 1, (2) above, which contains human L-FABP chromosomal gene (entire length), was linealized and transfected into the porcine renal tubular cell line LLC-PK1 or mouse immortalized renal tubular epithelial cells prepared in a manner similar to that described in Example 2 (3) above to obtain stable transformed cell lines. The human L-FABP chromosomal gene was integrated into these cells on their chromosome without deletion. Using these cells, L-FABP up-regulating activity of test compounds were examined at RNA level and protein level in the following manner. Cells were cultured to become confluent, when the medium was replaced with serum-free DMEM medium, and test compounds were added to the medium at final concentration of 1 μM. The cultivation was continued at 37° C. Control sample was obtained without adding any test compounds. Measurement at protein level was carried out in the following manner. Cultivated cells were collected and sonicated and then cell extract was prepared. The amount of L-FABP in the extract was detected by Western Blotting method or ELISA method with anti-human L-FABP antibody. […] The up-regulating effect on L-FABP protein expression was also observed when Etomoxir was added.
On the technique in general: In western blotting, separated proteins are transferred to a membrane and probed.

Another assay relates to human L-FABP mRNA. Kind of assay: L-FABP up-regulating activity at mRNA level (RT-PCR) in LLC-PK1 or mouse immortalized renal tubular epithelial cells carrying the human L-FABP chromosomal gene. It is filed as cell-based. As to conditions: 1 μM, serum-free DMEM; from 15 minute to 24 hour after beginning of cultivation; normalised to GAPDH mRNA. From the text:
The plasmid isolated in Example 1, (2) above, which contains human L-FABP chromosomal gene (entire length), was linealized and transfected into the porcine renal tubular cell line LLC-PK1 or mouse immortalized renal tubular epithelial cells prepared in a manner similar to that described in Example 2 (3) above to obtain stable transformed cell lines. The human L-FABP chromosomal gene was integrated into these cells on their chromosome without deletion. Using these cells, L-FABP up-regulating activity of test compounds were examined at RNA level and protein level in the following manner. Cells were cultured to become confluent, when the medium was replaced with serum-free DMEM medium, and test compounds were added to the medium at final concentration of 1 μM. The cultivation was continued at 37° C. Control sample was obtained without adding any test compounds. Measurement at mRNA level was carried out in the following manner. After cultivation, cells were collected and total RNA was prepared. […] Also, in order to normalize the measurement values, GAPDH (glyceraldehyde 3-phosphate dehydrogenase) mRNA was detected as control in the similar RT-PCR. The resulted PCR products were subjected to agarose-gel electrophoresis, the gel was stained with ethidium bromide to detect bands respectively and the expression amount was determined by densitometry, or visually.

The test system of assay [3] is adriamycin-induced glomerular sclerosis mouse. In words: Adriamycin-induced glomerular sclerosis model mouse (BALB/c). It counts as in vivo. From the text: An adriamycin-induced glomerular sclerosis mouse was used as a renal disease model to confirm effect of PPAR agonist MCC-555 in the following manner. An adriamycin(AD)-induced glomerular sclerosis mouse is a pathological model which develops focal glomerular sclerosis in 3 weeks after the onset of nephrosis symptom while showing the symptom and eventually results in irreversible chronic renal insufficiency (Chen et. al., Nephron, vol. 78, pp.440-452, 1998). As shown in Examples 3, 4 and 5, MCC-555 is a compound confirmed to have L-FABP up-regulating activity. In the experiment, 7-week-age female BALB/c mice (purchased from Charles River Japan, Inc.) were used. At the first day of experiment (Day 0), Adriamycin (Sigma) was administered intravenously at 10 mg/kg (10 ml/kg dissolved in saline at 1 mg/ml). Normal group received intravenously an equivalent amount of saline only. To the mice were administered orally MCC-555 or carrier alone for 14 days from the first day of experiment (Day 0 to Day 13). The administration was initially conducted 1 hour before the adriamycin administration, and administration volume was 10 ml/kg for each time. In drug administration group (n=6), MCC-555 (suspension in 0.1% Tween 80-containing purified water) was administered at a dose of 10 mg/kg to mice that have received adriamycin. In control group (n=6), carrier (0.1% Tween 80-containing purified water) alone was administered to mice that have received adriamycin. Also in normal group (n=3), mice received carrier alone. Mice were separately housed in “a metabolic cage” and allowed to access food and water ad libitum while collecting urine for 24 hours. Specifically, collection of urine was performed 4 times in total, i.e., day 3-4, day 6-7, day 9-10, and day 13-14. Following measurement of volume, the collected urine was subjected to determination of urinary protein, NAG (N-acetyl-β-D-glucosaminidase) and creatinine (CRE) concentrations by clinical chemistry analyzer (SuperZ-818, […] Co.) After the collection of urine on the last experiment day (Day 14), blood was collected via abdominal aorta under ethereal anesthetization and serum was separated. Cholesterol and albumin were determined using Automated clinical analyzer TBA-80FR (TOSHIBA). Also, kidneys were isolated and fixed with neutral buffered formalin.

In assay [4] the test system is adriamycin-induced glomerular sclerosis hFABP-Tg mouse. Kind of assay: Adriamycin-induced glomerular sclerosis model in transgenic mouse introduced with human L-FABP gene (hFABP-Tg mouse). The following applies: 10 mg/kg. It counts as in vivo. The procedure: Transgenic mouse (hFABP-Tg mouse) introduced with human L-FABP gene was prepared. The hFABP-Tg mouse was used to make renal disease model similar to that of Example 8 and the effect of MCC-555 was identified.
In the preparation of hFABP-Tg mouse, male BCF1 mouse (13-week or over) was used for sterile mating and natural mating; female ICR mouse (10-week or over) for embryo transplant and as a foster mother; male BDF1 mouse (13-week or over) for mating; and female BCF1 mouse (8-week or over) for collection of eggs, respectively. The resultant transgenic mouse (B6C3F1 line) was used to backcross with BALB/c mouse.
The resultant female transgenic mouse was used to prepare a renal disease model (adriamycin-induced glomerular sclerosis model) and to confirm effects of drug (MCC-555). The preparation of disease model and confirmation of effect of a drug were conducted in a similar manner to that described in Example 8 above except that the dose of adriamycin on the first experiment day (Day 0) was 15 mg/kg (15 ml/kg, dissolved in saline at concentration of 1 mg/ml).
In drug administration group (n=5), MCC-555 (10 mg/kg) was administered to mice that have received adriamycin, and in control group (at the beginning of experiment, n=5), only carrier was administered to mice that have received adriamycin, In normal group (n=3), mice that were not treated with adriamycin received carrier. Collection of urine was performed 3 times in total, i.e., day 6-7 day (Day 7), day 10-11 (Day 11), and day 13-14 (Day 14) and urinary protein, NAG and creatinine concentrations were determined by Automated clinical analyzer after measurements of urine volume.

[5] abbreviates: adriamycin 15 mg/kg, Day 7, 11, 14, FIG. 9.

As to `CCCc1c(OCCCCCCc2nn[nH]n2)ccc(C(C)=O)c1O` [4-THA, 2-hydroxy-3-propyl-4-[6-(tetrazol-5-yl)hexyloxy]acetophenone], in assay [1], the “L-FABP mRNA” value is recorded as “increased”.

As for `CCOC(=O)C1(CCCCCCOc2ccc(Cl)cc2)CO1` (stereo not shown) [Etomoxir, ethyl 2-[6-(4-chlorophenoxy)hexyl]oxiranecarboxylate], the “Induction of luciferase activity (L-FABP up-regulating activity)” value in assay [2] is “Induction of luciferase activity was observed”. For the same compound, the “Up-regulating effect on L-FABP protein expression” value with human L-FABP is on record as “also observed”.

Regarding `O=C1NC(=O)C(Cc2ccc3cc(OCc4ccccc4F)ccc3c2)S1` (stereo not shown) [MCC-555, 5-[6-(2-fluorobenzyloxy)naphthalene-2-ylmethyl]thiazolidine-2,4-dione], the “Induction of luciferase activity (L-FABP up-regulating activity)” value in assay [2] is given as “Induction of luciferase activity was observed”. For the same compound, the “Up-regulating effect on L-FABP protein expression” value with human L-FABP was “up-regulating effect on L-FABP protein expression was observed”. In addition, the “Induction of L-FABP mRNA” value in the assay on human L-FABP mRNA is on record as “induction of L-FABP mRNA was observed”. The “Histological changes of kidney (tissue imaging examination)” value in assay [3] (10 mg/kg orally for 14 days) was “inhibited”. For the same compound, the “NAG excretion (index of proximal renal tubular injury)” value in assay [3] (10 mg/kg orally for 14 days (Day 0 to Day 13), adriamycin 10 mg/kg i.v., FIG. 7) is “suppressed”. Also, the “Proteinuria (urinary protein)” value in assay [3] (10 mg/kg orally for 14 days, adriamycin 10 mg/kg i.v., FIG. 7) is on record as “improved”. Further, the “Blood biochemical examination parameters (blood cholesterol and albumin level)” value in assay [3] (10 mg/kg orally for 14 days, serum at Day 14, FIG. 8) is reported as “improved”. Also, in assay [4] (setting [5]), the “Increase of NAG excretion amount after AD administration” value is given as “significantly suppressed” and the “Increase of urinary protein after AD administration” value is recorded as “significantly suppressed”. For the same compound, the “Animals died during the experiment” value in assay [4] (n=5, in the control group 3 animals died) is recorded as “no animals died”.
